Among the data in the Kinase Knowledgebase extract (Sharma et al. 2016) are IC50 values, retold here.

As a reminder, the IC50 is the midpoint of a concentration-inhibition curve. Lower therefore signals greater potency.

One test has as its target CDK2 (UniProt P24941). The test is described as follows: Enzyme Assay.
Another test addresses EGFR (mouse) (UniProt P00533). To be noted: 3t3.

Bounds are passed on as bounds.

In the case of `NS(=O)(=O)c1ccc2c(c1)/C(=C/c1[nH]cc3c1CCOC3=O)C(=O)N2`, the figures for the IC50 on CDK2 and in the test with EGFR (mouse) were 10 nM and > 20000 nM, respectively.
On the same counts, the results for `O=C1Nc2ccc(F)cc2/C1=C/c1[nH]cc2c1CCOC2=O` are 80 nM and > 20000 nM.
As to `O=C1Nc2ccc(Br)cc2/C1=C/c1[nH]cc2c1CCNC2=O`, the values for the IC50 against CDK2 and with EGFR (mouse) were 530 nM and > 20000 nM, respectively.
As for `CN(C)S(=O)(=O)c1ccc2c(c1)/C(=C/c1[nH]cc3c1CCNC3=O)C(=O)N2`, the IC50 was 100 nM on CDK2 and > 20000 nM in the test with EGFR (mouse).
In the same order, the values of `O=C1Nc2cc(F)ccc2/C1=C/c1[nH]cc2c1CCOC2=O` are 360 nM and > 20000 nM.
For the compound `O=C1Nc2cccc(CCO)c2/C1=C/c1[nH]cc2c1CCOC2=O`, the values for the half-inhibitory concentration (IC50) against CDK2 and in the test with EGFR (mouse) were 30 nM and > 20000 nM, respectively.
Turning to `O=C1Nc2ccc(S(=O)(=O)N3CCCc4ccccc43)cc2/C1=C/c1[nH]cc2c1CCOC2=O`, the half-inhibitory concentration (IC50) against CDK2 was 550 nM; with EGFR (mouse), > 20000 nM.
On to `CC(=O)Nc1ccc2c(c1)NC(=O)/C2=C\c1[nH]cc2c1CCOC2=O`, for which the half-maximal inhibitory concentration (IC50) was 7860 nM against CDK2 and > 20000 nM with EGFR (mouse).
On the same counts, the results for `O=C1Nc2cccc(CCO)c2/C1=C/c1[nH]cc2c1CCNC2=O` are 450 nM and > 20000 nM.
In the case of `O=C1Nc2ccc(S(=O)(=O)N3CCc4cc(Br)ccc43)cc2/C1=C/c1[nH]cc2c1CCOC2=O`, the IC50 is 2860 nM against CDK2 and > 20000 nM with EGFR (mouse).
On to `O=C1Nc2ccc(Cl)cc2/C1=C/c1[nH]cc2c1CCOC2=O`, for which the half-maximal inhibitory concentration (IC50) was 90 nM against CDK2 and > 20000 nM with EGFR (mouse).
For the compound `COc1cccc(-c2ccc3c(c2)NC(=O)/C3=C\c2[nH]cc3c2CCOC3=O)c1`, the results for the IC50 on CDK2 and in the test with EGFR (mouse) were > 10000 nM and > 20000 nM, respectively.
As for `O=C1Nc2ccc(C(=O)N3CCCC3)cc2/C1=C/c1[nH]cc2c1CCNC2=O`, the half-maximal inhibitory concentration (IC50) was 70 nM against CDK2 and > 20000 nM in the test with EGFR (mouse).
As for `O=C1Nc2cc(-c3ccc(F)cc3)ccc2/C1=C/c1[nH]cc2c1CCOC2=O`, the concentration for half-maximal inhibition (IC50) was 1060 nM at CDK2 and > 20000 nM with EGFR (mouse).
As for `O=C1Nc2ccc(S(=O)(=O)Nc3ccccc3)cc2/C1=C/c1[nH]cc2c1CCOC2=O`, the half-maximal inhibitory concentration (IC50) at CDK2 is 40 nM; with EGFR (mouse) it was > 20000 nM.
In the case of `O=C1Nc2ccc(-c3ccccc3)cc2/C1=C/c1[nH]cc2c1CCNC2=O`, the IC50 against CDK2 is 3200 nM; with EGFR (mouse), > 20000 nM.
Take `O=C1Nc2ccc(S(=O)(=O)Nc3cccc(Cl)c3)cc2/C1=C/c1[nH]cc2c1CCOC2=O`: the results for the IC50 against CDK2 and with EGFR (mouse) were 490 nM and > 20000 nM, respectively.
Turning to `O=C1Nc2ccc(-c3ccccc3)cc2/C1=C/c1[nH]cc2c1CCOC2=O`, the IC50 at CDK2 was 3840 nM; in the test with EGFR (mouse), > 20000 nM.
`O=C1Nc2cc(-c3ccccc3)ccc2/C1=C/c1[nH]cc2c1CCOC2=O`: the IC50 against CDK2 was > 10000 nM; in the test with EGFR (mouse), > 20000 nM.
`CN(C)C(=O)c1ccc2c(c1)/C(=C/c1[nH]cc3c1CCNC3=O)C(=O)N2`: the IC50 is 90 nM at CDK2 and > 20000 nM with EGFR (mouse).
Consider `O=C1Nc2ccc(Br)cc2/C1=C/c1[nH]cc2c1CCOC2=O`, for which the IC50 at CDK2 was 240 nM; with EGFR (mouse), > 20000 nM.
Take `O=C1Nc2ccc3c(c2/C1=C/c1[nH]cc2c1CCOC2=O)CCOS3(=O)=O`: the results for the half-inhibitory concentration (IC50) against CDK2 and with EGFR (mouse) were 130 nM and > 20000 nM, respectively.
Take `COc1ccc2c(c1)/C(=C/c1[nH]cc3c1CCNC3=O)C(=O)N2`: the IC50 against CDK2 was 290 nM; with EGFR (mouse), > 20000 nM.
For the compound `O=C1Nc2cc(Br)ccc2/C1=C/c1[nH]cc2c1CCNC2=O`, the IC50 is > 10000 nM on CDK2 and > 20000 nM in the test with EGFR (mouse).
`NS(=O)(=O)c1ccc2c(c1)/C(=C/c1[nH]cc3c1CCNC3=O)C(=O)N2`: the IC50 was < 5 nM at CDK2 and > 20000 nM with EGFR (mouse).
In the case of `O=C1Nc2cc(-c3cccnc3)ccc2/C1=C/c1[nH]cc2c1CCOC2=O`, the 50% inhibitory concentration (IC50) was 5690 nM against CDK2 and > 20000 nM in the test with EGFR (mouse).
Take `COc1ccc2c(c1)/C(=C/c1[nH]cc3c1CCOC3=O)C(=O)N2`: the half-maximal inhibitory concentration (IC50) at CDK2 is 40 nM; with EGFR (mouse), > 20000 nM.
As to `CN(c1cccc(Cl)c1)S(=O)(=O)c1ccc2c(c1)/C(=C/c1[nH]cc3c1CCOC3=O)C(=O)N2`, the IC50 against CDK2 is 9950 nM; in the test with EGFR (mouse) it was > 20000 nM.
Turning to `COc1ccccc1-c1ccc2c(c1)NC(=O)/C2=C\c1[nH]cc2c1CCOC2=O`, the values for the IC50 against CDK2 and in the test with EGFR (mouse) were > 10000 nM and > 20000 nM, respectively.
On to `Cc1cccc2c1/C(=C/c1[nH]cc3c1CCOC3=O)C(=O)N2`, for which the IC50 was 270 nM against CDK2 and > 20000 nM with EGFR (mouse).
`CN(C)S(=O)(=O)c1ccc2c(c1)/C(=C/c1[nH]cc3c1CCOC3=O)C(=O)N2`: the half-maximal inhibitory concentration (IC50) against CDK2 is 30 nM; with EGFR (mouse) it was > 20000 nM.
With `CNS(=O)(=O)c1ccc2c(c1)/C(=C/c1[nH]cc3c1CCNC3=O)C(=O)N2`, the half-maximal inhibitory concentration (IC50) is 9 nM on CDK2 and > 20000 nM in the test with EGFR (mouse).
In the same order, the values of `O=C1Nc2cc(Cl)ccc2/C1=C/c1[nH]cc2c1CCOC2=O` are 410 nM and > 20000 nM.
On the same counts, the results for `O=C1Nc2cc(Br)ccc2/C1=C/c1[nH]cc2c1CCOC2=O` are 970 nM and > 20000 nM.
As to `COc1ccc(-c2ccc3c(c2)NC(=O)/C3=C\c2[nH]cc3c2CCOC3=O)cc1`, the IC50 is 1000 nM at CDK2 and > 20000 nM in the test with EGFR (mouse).
As for `O=C1Nc2ccc(S(=O)(=O)N3CCc4ccccc4C3)cc2/C1=C/c1[nH]cc2c1CCOC2=O`, the IC50 against CDK2 is 730 nM; with EGFR (mouse) it was > 20000 nM.
In the same order, the values of `O=C1Nc2ccc(S(=O)(=O)N3CCc4ccccc43)cc2/C1=C/c1[nH]cc2c1CCOC2=O` are 350 nM and > 20000 nM.
On to `Cc1c(Cl)ccc2c1/C(=C/c1[nH]cc3c1CCOC3=O)C(=O)N2`, for which the IC50 on CDK2 is 310 nM; with EGFR (mouse), > 20000 nM.
Regarding `O=C1Nc2ccc(F)cc2/C1=C/c1[nH]cc2c1CCNC2=O`, the values for the half-maximal inhibitory concentration (IC50) on CDK2 and with EGFR (mouse) were 300 nM and > 20000 nM, respectively.
Turning to `O=C1Nc2cc(-c3ccccc3)ccc2/C1=C/c1[nH]cc2c1CCNC2=O`, the half-maximal inhibitory concentration (IC50) against CDK2 is 6010 nM; in the test with EGFR (mouse), > 20000 nM.
`COc1ccc2c(c1)NC(=O)/C2=C\c1[nH]cc2c1CCOC2=O` yielded a concentration for half-maximal inhibition (IC50) against CDK2 of 1550 nM.
`O=C1Nc2ccc(-c3cccc(C(=O)O)c3)cc2/C1=C/c1[nH]cc2c1CCOC2=O`: the IC50 against CDK2 is 6710 nM; with EGFR (mouse) it was > 20000 nM.
In the same order, the values of `O=C1Nc2ccc(C(=O)O)cc2/C1=C/c1[nH]cc2c1CCOC2=O` are 4 nM and > 20000 nM.
With `CNS(=O)(=O)c1ccc2c(c1)/C(=C/c1[nH]cc3c1CCOC3=O)C(=O)N2`, the 50% inhibitory concentration (IC50) was 5 nM on CDK2 and > 20000 nM in the test with EGFR (mouse).
Take `O=C1Nc2ccc(C(=O)N3CCOCC3)cc2/C1=C/c1[nH]cc2c1CCNC2=O`: the concentration for half-maximal inhibition (IC50) against CDK2 is 560 nM; with EGFR (mouse), > 20000 nM.
On the same counts, the results for `Cc1c(Br)ccc2c1/C(=C/c1[nH]cc3c1CCOC3=O)C(=O)N2` are 160 nM and > 20000 nM.
In the case of `O=C1Nc2cc(-c3cccc(C(=O)O)c3)ccc2/C1=C/c1[nH]cc2c1CCOC2=O`, the values for the 50% inhibitory concentration (IC50) against CDK2 and in the test with EGFR (mouse) were 5360 nM and 18700 nM, respectively.
For `O=C1Nc2cc(C(=O)O)ccc2/C1=C/c1[nH]cc2c1CCOC2=O`, the half-inhibitory concentration (IC50) against CDK2 is 1080 nM; with EGFR (mouse), > 20000 nM.
For `CNS(=O)(=O)c1ccc2c(c1C)/C(=C/c1[nH]cc3c1CCOC3=O)C(=O)N2`, the concentration for half-maximal inhibition (IC50) against CDK2 is 5.5 nM; in the test with EGFR (mouse), > 20000 nM.
As to `O=C1Nc2cc(Cl)ccc2/C1=C/c1[nH]cc2c1CCNC2=O`, the IC50 against CDK2 is 7230 nM; with EGFR (mouse), > 20000 nM.
Turning to `O=C1Nc2c(Cl)cccc2/C1=C/c1[nH]cc2c1CCOC2=O`, the IC50 was 2580 nM against CDK2 and > 20000 nM with EGFR (mouse).
On to `CC(C)NS(=O)(=O)c1ccc2c(c1)/C(=C/c1[nH]cc3c1CCOC3=O)C(=O)N2`, for which the IC50 against CDK2 is 60 nM; with EGFR (mouse) it was > 20000 nM.
